In ChEMBL document CHEMBL5653615 (J Biol Chem, 2013):

How the values were obtained:
[1] = target: G protein-coupled receptor kinase 4 (Homo sapiens) (UniProt P32298); experiment: Inhibition of human GRK4 at 18.6 nM by HotSpot assay relative to control
[2] = target: T1, cGMP-dependent protein kinase 2 (Homo sapiens) (UniProt Q13237); experiment: Inhibition of human PRKG2 at 18.6 nM by HotSpot assay relative to control
T1 sequence (whole entry): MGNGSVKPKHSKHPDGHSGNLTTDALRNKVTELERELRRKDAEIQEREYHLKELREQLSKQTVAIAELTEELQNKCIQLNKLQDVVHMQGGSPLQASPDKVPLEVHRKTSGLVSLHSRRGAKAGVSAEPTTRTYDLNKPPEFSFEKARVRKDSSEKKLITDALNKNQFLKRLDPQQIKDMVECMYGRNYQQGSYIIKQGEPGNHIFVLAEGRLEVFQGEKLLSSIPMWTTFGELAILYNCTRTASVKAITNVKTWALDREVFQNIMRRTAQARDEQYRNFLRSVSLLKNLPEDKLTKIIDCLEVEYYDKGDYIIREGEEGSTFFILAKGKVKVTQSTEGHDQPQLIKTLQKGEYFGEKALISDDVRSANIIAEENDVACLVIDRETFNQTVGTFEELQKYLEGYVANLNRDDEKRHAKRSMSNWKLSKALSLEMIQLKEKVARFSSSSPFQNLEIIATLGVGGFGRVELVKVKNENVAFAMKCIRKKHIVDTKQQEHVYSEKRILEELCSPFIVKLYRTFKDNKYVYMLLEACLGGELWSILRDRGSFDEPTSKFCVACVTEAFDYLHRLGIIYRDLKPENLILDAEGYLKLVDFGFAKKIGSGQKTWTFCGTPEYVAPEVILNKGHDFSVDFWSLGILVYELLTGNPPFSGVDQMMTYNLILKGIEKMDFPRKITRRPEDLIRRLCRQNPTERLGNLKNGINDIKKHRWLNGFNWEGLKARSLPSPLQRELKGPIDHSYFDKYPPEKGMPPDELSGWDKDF

[3] = target: T2, Dual specificity mitogen-activated protein kinase kinase 6 (Homo sapiens) (UniProt P52564); experiment: Inhibition of human MKK6 at 18.6 nM by HotSpot assay relative to control
T2 sequence (whole entry): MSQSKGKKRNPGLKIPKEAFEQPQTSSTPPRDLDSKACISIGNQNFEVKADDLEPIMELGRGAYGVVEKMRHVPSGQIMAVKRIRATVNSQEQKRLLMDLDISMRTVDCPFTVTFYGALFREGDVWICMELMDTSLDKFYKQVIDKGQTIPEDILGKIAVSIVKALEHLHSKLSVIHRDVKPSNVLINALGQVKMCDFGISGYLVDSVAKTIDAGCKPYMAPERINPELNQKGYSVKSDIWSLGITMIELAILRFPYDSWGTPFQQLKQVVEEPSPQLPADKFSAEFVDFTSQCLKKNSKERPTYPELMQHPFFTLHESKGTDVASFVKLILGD

[4] = target: CDK6/cyclin D1 (Homo sapiens) (UniProt P24385+Q00534); experiment: Inhibition of human CDK6/cyclin D1 at 18.6 nM by HotSpot assay relative to control; type: protein-complex assay
[5] = target: Glycogen synthase kinase-3 alpha (Homo sapiens) (UniProt P49840); experiment: Inhibition of human GSK3a at 18.6 nM by HotSpot assay relative to control
[6] = target: LIM domain kinase 1 (Homo sapiens) (UniProt P53667); experiment: Inhibition of human LIMK1 at 1.82 nM by HotSpot assay relative to control
[7] = target: G protein-coupled receptor kinase 5 (Homo sapiens) (UniProt P34947); experiment: Inhibition of human GRK5 at 1.82 nM by HotSpot assay relative to control
[8] = target: Serine/threonine-protein kinase WNK3 (Homo sapiens) (UniProt Q9BYP7); experiment: Inhibition of human WNK3 at 1.82 nM by HotSpot assay relative to control
[9] = target: T3, Serine/threonine-protein kinase Chk1 (Homo sapiens) (UniProt O14757); experiment: Inhibition of human CHK1 at 1.82 nM by HotSpot assay relative to control
T3 sequence (whole entry): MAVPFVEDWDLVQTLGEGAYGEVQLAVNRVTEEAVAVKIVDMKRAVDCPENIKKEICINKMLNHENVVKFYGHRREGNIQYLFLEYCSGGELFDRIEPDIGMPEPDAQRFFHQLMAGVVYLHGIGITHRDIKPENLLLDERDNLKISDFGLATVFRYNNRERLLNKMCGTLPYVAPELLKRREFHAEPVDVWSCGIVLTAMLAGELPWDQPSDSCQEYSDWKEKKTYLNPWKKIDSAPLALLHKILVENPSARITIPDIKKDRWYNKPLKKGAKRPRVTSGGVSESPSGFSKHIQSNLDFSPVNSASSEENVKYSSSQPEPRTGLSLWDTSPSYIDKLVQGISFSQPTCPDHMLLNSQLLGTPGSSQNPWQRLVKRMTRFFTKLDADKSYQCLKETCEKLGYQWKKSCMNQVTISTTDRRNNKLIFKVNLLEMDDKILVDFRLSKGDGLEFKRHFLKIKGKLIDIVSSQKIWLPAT

[10] = target: Cyclin-dependent kinase 2/cyclin E1 (Homo sapiens) (UniProt P24864+P24941); experiment: Inhibition of human CDK2/cyclin E at 1.82 nM by HotSpot assay relative to control; type: protein-complex assay
[11] = target: T4, Dual specificity tyrosine-phosphorylation-regulated kinase 2 (Homo sapiens) (UniProt Q92630); experiment: Inhibition of human DYRK2 at 1.82 nM by HotSpot assay relative to control
T4 sequence (whole entry): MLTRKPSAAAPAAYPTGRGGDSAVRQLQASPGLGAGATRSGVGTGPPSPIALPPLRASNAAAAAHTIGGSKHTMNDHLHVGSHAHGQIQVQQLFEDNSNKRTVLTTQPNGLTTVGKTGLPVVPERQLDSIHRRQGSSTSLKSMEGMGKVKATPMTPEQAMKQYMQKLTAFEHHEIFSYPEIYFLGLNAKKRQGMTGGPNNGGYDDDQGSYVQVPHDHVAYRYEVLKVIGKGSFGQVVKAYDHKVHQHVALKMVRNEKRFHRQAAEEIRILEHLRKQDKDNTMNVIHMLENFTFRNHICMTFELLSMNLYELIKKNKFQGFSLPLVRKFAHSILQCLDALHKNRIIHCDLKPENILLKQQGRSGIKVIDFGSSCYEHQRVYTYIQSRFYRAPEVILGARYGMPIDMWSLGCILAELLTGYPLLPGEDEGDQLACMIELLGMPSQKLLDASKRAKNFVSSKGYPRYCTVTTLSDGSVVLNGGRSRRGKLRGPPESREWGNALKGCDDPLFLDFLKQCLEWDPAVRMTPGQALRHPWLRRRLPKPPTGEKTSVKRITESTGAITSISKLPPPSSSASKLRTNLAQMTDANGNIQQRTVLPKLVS

Sequence of Serine/threonine-protein kinase WNK3 (Homo sapiens) (Q9BYP7 whole entry): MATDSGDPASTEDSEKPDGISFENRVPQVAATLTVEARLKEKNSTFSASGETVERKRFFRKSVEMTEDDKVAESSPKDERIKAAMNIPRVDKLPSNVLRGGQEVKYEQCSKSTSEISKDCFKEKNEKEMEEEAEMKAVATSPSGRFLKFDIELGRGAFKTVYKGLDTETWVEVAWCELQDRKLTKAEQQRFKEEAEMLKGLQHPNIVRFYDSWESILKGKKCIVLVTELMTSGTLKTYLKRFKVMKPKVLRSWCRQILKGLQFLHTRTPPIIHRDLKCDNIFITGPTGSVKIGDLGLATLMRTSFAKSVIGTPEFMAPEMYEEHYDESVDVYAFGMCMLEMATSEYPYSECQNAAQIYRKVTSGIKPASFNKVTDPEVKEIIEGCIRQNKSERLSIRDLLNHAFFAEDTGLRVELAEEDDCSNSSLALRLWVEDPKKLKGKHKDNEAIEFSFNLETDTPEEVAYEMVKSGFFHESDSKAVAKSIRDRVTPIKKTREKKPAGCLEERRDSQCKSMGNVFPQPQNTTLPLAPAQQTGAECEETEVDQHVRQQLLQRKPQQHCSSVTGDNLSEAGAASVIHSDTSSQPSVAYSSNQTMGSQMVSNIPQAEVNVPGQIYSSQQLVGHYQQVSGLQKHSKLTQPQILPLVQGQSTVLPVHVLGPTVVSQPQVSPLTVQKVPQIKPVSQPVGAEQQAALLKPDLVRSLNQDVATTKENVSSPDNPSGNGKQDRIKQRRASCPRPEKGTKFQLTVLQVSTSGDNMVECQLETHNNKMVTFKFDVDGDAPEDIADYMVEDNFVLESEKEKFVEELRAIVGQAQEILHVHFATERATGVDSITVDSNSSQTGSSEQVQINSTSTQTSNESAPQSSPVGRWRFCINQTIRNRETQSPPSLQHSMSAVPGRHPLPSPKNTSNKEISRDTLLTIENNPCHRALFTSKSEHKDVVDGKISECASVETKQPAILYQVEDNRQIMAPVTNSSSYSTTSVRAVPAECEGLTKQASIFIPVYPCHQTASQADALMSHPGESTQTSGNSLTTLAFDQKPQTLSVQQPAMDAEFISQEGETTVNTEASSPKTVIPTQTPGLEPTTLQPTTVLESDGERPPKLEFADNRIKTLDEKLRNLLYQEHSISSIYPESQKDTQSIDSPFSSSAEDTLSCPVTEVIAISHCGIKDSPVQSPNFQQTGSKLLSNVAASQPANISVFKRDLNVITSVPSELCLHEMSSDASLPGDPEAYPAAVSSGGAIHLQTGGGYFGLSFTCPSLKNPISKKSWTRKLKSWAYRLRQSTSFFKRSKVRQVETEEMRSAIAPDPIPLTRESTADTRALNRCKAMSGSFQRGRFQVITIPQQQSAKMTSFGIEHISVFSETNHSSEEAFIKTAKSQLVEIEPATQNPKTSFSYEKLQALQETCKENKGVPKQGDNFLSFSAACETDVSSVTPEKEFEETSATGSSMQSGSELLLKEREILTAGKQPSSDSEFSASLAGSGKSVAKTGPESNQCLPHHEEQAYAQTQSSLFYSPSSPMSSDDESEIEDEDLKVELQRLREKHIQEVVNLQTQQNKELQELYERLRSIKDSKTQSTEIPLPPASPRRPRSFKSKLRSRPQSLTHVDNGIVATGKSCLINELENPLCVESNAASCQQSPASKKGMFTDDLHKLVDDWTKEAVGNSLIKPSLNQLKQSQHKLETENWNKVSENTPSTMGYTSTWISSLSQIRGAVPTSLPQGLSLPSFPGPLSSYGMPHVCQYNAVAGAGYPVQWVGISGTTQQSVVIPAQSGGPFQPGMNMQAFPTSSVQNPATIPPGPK
Sequence of LIM domain kinase 1 (Homo sapiens) (P53667 whole entry, looked up, the tested form may be a part): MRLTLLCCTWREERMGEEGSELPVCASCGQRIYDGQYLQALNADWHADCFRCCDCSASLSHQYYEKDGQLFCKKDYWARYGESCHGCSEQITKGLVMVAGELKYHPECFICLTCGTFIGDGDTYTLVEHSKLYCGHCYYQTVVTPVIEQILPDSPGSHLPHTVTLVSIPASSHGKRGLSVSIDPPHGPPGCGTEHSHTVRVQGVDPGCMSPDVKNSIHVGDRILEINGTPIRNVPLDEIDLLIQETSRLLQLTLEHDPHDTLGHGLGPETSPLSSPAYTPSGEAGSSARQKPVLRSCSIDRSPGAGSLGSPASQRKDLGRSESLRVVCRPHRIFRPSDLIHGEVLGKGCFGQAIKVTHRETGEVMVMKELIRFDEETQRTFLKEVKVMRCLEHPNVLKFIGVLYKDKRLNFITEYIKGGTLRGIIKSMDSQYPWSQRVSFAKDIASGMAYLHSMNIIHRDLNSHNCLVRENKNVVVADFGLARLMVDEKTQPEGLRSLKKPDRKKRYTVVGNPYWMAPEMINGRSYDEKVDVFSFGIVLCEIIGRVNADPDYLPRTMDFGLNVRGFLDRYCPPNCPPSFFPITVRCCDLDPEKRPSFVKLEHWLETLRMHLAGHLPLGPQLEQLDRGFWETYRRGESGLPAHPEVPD
Sequence of G protein-coupled receptor kinase 5 (Homo sapiens) (P34947 whole entry, looked up): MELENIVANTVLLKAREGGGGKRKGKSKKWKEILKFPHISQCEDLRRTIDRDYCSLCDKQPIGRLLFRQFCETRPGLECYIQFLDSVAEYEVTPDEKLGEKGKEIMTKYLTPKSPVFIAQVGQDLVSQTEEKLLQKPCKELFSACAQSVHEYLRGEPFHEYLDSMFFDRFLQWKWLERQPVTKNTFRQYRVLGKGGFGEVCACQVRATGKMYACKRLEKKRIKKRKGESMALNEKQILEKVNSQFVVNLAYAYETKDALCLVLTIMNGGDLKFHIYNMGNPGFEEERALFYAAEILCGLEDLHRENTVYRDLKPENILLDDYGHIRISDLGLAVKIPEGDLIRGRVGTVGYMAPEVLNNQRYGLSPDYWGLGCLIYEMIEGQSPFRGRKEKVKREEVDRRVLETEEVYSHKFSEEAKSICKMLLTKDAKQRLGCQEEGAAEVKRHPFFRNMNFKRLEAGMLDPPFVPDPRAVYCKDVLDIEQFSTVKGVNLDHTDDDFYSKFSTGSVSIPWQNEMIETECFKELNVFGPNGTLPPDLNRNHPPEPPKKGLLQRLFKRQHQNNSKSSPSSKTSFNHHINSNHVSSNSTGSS
Sequence of Glycogen synthase kinase-3 alpha (Homo sapiens) (P49840 2-483 limits assumed): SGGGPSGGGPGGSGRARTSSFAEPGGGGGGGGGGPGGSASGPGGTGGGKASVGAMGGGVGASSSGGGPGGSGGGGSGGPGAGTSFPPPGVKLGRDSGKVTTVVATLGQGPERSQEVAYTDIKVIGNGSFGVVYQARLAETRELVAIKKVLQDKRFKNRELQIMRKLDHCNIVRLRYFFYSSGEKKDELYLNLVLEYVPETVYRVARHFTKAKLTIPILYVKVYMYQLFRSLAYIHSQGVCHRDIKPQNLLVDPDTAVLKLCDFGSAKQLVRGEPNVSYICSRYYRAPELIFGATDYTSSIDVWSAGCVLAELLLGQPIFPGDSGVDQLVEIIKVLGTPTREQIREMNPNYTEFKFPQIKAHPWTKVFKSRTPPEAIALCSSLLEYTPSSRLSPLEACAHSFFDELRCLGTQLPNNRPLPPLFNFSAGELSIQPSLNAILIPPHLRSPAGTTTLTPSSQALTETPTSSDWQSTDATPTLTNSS
Sequence of G protein-coupled receptor kinase 4 (Homo sapiens) (P32298 whole entry, looked up): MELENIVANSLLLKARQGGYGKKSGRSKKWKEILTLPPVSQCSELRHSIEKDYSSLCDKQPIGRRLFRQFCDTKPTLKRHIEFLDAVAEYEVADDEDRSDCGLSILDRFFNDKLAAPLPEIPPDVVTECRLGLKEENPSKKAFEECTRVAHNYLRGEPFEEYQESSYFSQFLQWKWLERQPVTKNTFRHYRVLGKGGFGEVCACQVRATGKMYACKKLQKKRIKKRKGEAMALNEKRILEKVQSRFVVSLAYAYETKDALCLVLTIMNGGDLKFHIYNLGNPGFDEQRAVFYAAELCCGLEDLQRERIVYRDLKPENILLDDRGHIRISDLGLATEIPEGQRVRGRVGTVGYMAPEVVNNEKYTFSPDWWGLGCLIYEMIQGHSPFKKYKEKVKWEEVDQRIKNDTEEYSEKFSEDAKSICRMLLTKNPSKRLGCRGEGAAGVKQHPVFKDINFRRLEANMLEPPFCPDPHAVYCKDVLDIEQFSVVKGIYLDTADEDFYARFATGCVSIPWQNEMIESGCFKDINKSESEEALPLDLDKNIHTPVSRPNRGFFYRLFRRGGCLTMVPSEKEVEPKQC

| inhibition [1] [%] | inhibition [2] [%] | inhibition [3] [%] | inhibition [4] [%] | inhibition [5] [%] | inhibition [6] [%] | inhibition [7] [%] | inhibition [8] [%] | inhibition [9] [%] | inhibition [10] [%] | inhibition [11] [%] | SMILES |
| --- | --- | --- | --- | --- | --- | --- | --- | --- | --- | --- | --- |
| 5.49 | -3.76 | 1.97 | 0.62 | -3.5 |  |  |  |  |  |  | C[C@]1(O)C[C@@H](c2nc(-c3ccc4ccc(-c5ccccc5)nc4c3)c3c(N)nccn32)C1 |
|  |  |  |  |  | -7.35 | 1.88 | 3.37 | -4.39 | 3.51 | 0 | C[C@@]1(C(=O)Nc2ccc(F)nc2)CCCN1c1nc(Nc2cc(C3CC3)n[nH]2)c2cccn2n1 |
